Experimental data from article PMC6112376, “Comprehensive Analyses and Prioritization of Tox21 10K Chemicals Affecting Mitochondrial Function by in-Depth Mechanistic Studies” (Environmental Health Perspectives, 2018).
Like-named read-outs stand apart in the source and are kept apart here. Where a SMILES comes first, the peptide text is derived from it. [ ]: non-standard residue; d: D form. Orn = NCCC[C@H](N)C(=O)O

How the values were obtained:
HepG2 cells [1] = conditions: for IC50: read-out: MMP assays IC50 (µM) HepG2
rat primary hepatocytes [2] = system: rat primary hepatocytes
HepG2 cells [3] = conditions: cited from earlier work
rat primary hepatocytes [4] = experiment: MMP assay in rat primary hepatocytes; conditions: for IC50: read-out: MMP assays IC50 (µM) Rat Hepatocytes
HepG2 cells [5] = experiment: cells; conditions: Homo sapiens; for IC50: HepG2, read-out: MMP assays IC50 (µM) HepG2; for Emax: HepG2, read-out: MMP assays efficacy (%) HepG2
[6] = read-out: MMP assays IC50 (µM), qHTS-HepG2
[7] = read-out: MMP assays IC50 (µM) qHTS-HepG2

SMILES | MMP assays efficacy (%) HepG2 (HepG2 cells [1]) | IC50 (HepG2 cells [1]) [µM] | MMP assays efficacy (%) Rat Hepatocytes (rat primary hepatocytes [2]) | MMP assays efficacy (%) qHTS-HepG2 (HepG2 cells [3]) | IC50 (HepG2 cells [3]; [6]) [µM] | IC50 (rat primary hepatocytes [4]) [µM] | IC50 (HepG2 cells [3]; [7]) [µM] | MMP assays IC50 (µM) HepG2 (HepG2 cells [1]) | MMP assays IC50 (µM) Rat Hepatocytes (rat primary hepatocytes [4]) | MMP assays IC50 (µM) qHTS-HepG2 (HepG2 cells [3]) | IC50 (HepG2 cells [5]) [µM] | Emax (HepG2 cells [5]) [%] | IC50 (rat primary hepatocytes [4]; Rattus norvegicus, Hepatocyte) [µM]
[F][Sn]([c]1ccccc1)([c]1ccccc1)[c]1ccccc1 [Triphenyltin fluoride] | -104% | 1.78 | -81±23% | -106±5% | 0.47 ± 0.31 | 6.17 ± 2.51 |  |  |  |  |  |  | 
COc1ccc(O)c(C(C)(C)C)c1 [Compound 2-tert-Butyl-4-methoxyphenol] |  | 35.5 | -53±11% | -92±3% |  | 36.5 ± 19.2 | 25.3 ± 1.71 |  |  |  |  |  | 
Cc1cccc(C)c1Nc1ncccc1C(=O)O [Metanixin] | -101% | 21.8 | -93±28% | -122±21% | 26 ± 2.11 | 21 ± 1.37 |  |  |  |  |  |  | 
CN(C)c1ccc(C(=C2C=CC(=[N+](C)C)C=C2)c2ccccc2)cc1.CN(C)c1ccc(C(=C2C=CC(=[N+](C)C)C=C2)c2ccccc2)cc1.O=C(O)C(=O)O.O=C([O-])C(=O)O.O=C([O-])C(=O)O [Malachite green oxalate] | -65% | 27.5 | -44±26% | -100±20% | 2.1 ± 1.87 | 8.67 ± 12.3 |  |  |  |  |  |  | 
CCCCCCCCCCCCCC[P+](CCCCCC)(CCCCCC)CCCCCC.[Br-] [Trihexyltetradecylphosphonium bromide] | -95% | 0.45 | -89±37% | -96±9% | 0.84 ± 0.24 | 18.8 ± 4.25 |  |  |  |  |  |  | 
O=C1NC(=O)c2cccc3cccc1c23 [1H-Benzo[de]isoquinoline-1,3(2H)-dione] | -77% | 14.1 | -43±22% | -77±24% |  | 5.56 ± 8.92 | 8.31 ± 3.47 |  |  |  |  |  | 
CCC1(c2ccccc2)C(=O)NC(=O)N(C(=O)c2ccccc2)C1=O (centres unmarked) [Benzobarbital] | inactive |  | inactive | -82±27% |  |  | 24.1 ± 5.12 | inactive | inactive |  |  |  | 
Nc1cccc(O)c1 [Compound 3-Aminophenol] | inactive |  | inactive | inactive |  |  |  | inactive | inactive | inactive |  |  | 
O=C1OC(=O)C2C1C1(Cl)C(Cl)=C(Cl)C2(Cl)C1(Cl)Cl (centres unmarked) [Chlorendic anhydride] | inactive |  | inactive | inactive |  |  |  | inactive | inactive | inactive |  |  | 
CNC(=O)c1cc(Oc2ccc(NC(=O)Nc3ccc(Cl)c(C(F)(F)F)c3)cc2)ccn1 | -92% | 1.23 | -72±24% |  | 0.96 ± 0.09 | 2.25 ± 0.63 |  |  |  |  |  |  | 
C=C(C)C(=O)OCC(O)COc1ccc(C(C)(C)c2ccc(OCC(O)COC(=O)C(=C)C)cc2)cc1 (centres unmarked) [Bisphenol A glycidyl methacrylate] | -118% | 15.8 | -70±50% | -121±28% |  | 38.1 ± 9.22 | 12.2 ± 11.9 |  |  |  |  |  | 
CC(C)C[C@@H]1NC(=O)[C@H](CCCN)NC(=O)[C@H](C(C)C)NC(=O)[C@@H]2CCCN2C(=O)[C@@H](Cc2ccccc2)NC(=O)[C@H](CC(C)C)NC(=O)[C@H](CCCN)NC(=O)[C@H](C(C)C)NC(=O)[C@@H]2CCCN2C(=O)[C@@H](Cc2ccccc2)NC1=O [gramicidin, reference compound] (cyclo(L[dF]PV[Orn]L[dF]PV[Orn])) | -121% |  | -112±28% | -86±3% | 0.51 ± 0.42 |  |  |  |  |  |  |  | 
CCN(CC)C(=S)[S-].CCN(CC)C(=S)[S-].[Zn+2] [Zinc diethyldithiocarbamate] | -63% |  | -95±12% | -70±15% |  |  |  |  |  |  |  |  | 
O=[N+]([O-])c1ccc(Nc2ccccc2)cc1 [Compound 4-Nitro-N-phenylaniline] |  |  | -93±7% | -99±15% |  |  | 7.43 ± 6.54 |  |  |  | 8.91 | 94 | 23.9 ± 7.05
O=[N+]([O-])c1ccc2c(c1)Cc1ccccc1-2 [Compound 2-Nitrofluorene] |  |  | -57±0% | -53±5% |  |  | 12.2 ± 0.86 |  |  |  | 50.1 | 41 | 38.1 ± 9.22
OC(c1ccc(Cl)cc1)(c1ccc(Cl)cc1)C(Cl)(Cl)Cl [Dicofol] |  |  | -122±51% | -98±4% |  |  | 9.69 ± 3.51 |  |  |  | 8.91 | 101 | 24.6 ± 9.27
Oc1c(Cl)cc(Cl)cc1Sc1cc(Cl)cc(Cl)c1O [Bithionol] |  |  | -109±25% | -97±9% |  |  | 0.66 ± 0.52 |  |  |  | 0.97 | 92 | 2.47 ± 1.39
COP(=S)(OC)Oc1c(Cl)cc(C)cc1Cl [Tolclofos-methyl] |  |  | -74±66% | -72±22% | 30.6 ± 5.8 |  |  |  |  |  | 39.8 | 105 | 31.2 ± 19
C=C1/C(=C\C=C2/CCC[C@]3(C)[C@@H]([C@H](C)CCCC(C)(C)O)CC[C@@H]23)C[C@@H](O)C[C@@H]1O [Calcitriol] |  |  | -37±8% | -94±17% |  |  | 14.1 ± 4.15 |  |  |  | 15.5 | 75 | 22.4 ± 7.17
CCC(C)(C)c1cc(O)c(C(C)(C)CC)cc1O |  |  | -87±19% | -121±19% |  |  | 6.86 ± 3.17 |  |  |  | 3.55 | 101 | 34.5 ± 5.88
Oc1ccc2ccccc2c1 [Compound 2-Naphthalenol] |  |  | -56±17% | -107±7% |  |  | 50.1 ± 16 |  |  |  | 35.5 | 81 | 42.2 ± 19.8
COc1ccc(C(=O)c2ccccc2O)c(O)c1 [2,2'-Dihydroxy-4-methoxybenzophenone] |  |  | -47±18% | -98±6% |  |  | 9.89 ± 1.04 |  |  |  | 5.24 | 103 | 11.1 ± 5.21
Clc1ccc(C(c2ccc(Cl)cc2)C(Cl)(Cl)Cl)cc1 [p,p'-DDT] |  |  | inactive | -99±12% | 24.3 ± 2.74 |  |  |  | inactive |  | 30.8 | 69 | 
O=[N+]([O-])c1ccc(Oc2ccc(C(F)(F)F)cc2[N+](=O)[O-])cc1 [Fluorodifen] |  |  | -114±10% | -89±20% | 27.3 ± 25.1 |  |  |  |  |  | 28.2 | 94 | 24.1 ± 15
O=C1C2(Cl)C3(Cl)C4(Cl)C(Cl)(Cl)C5(Cl)C3(Cl)C1(Cl)C5(Cl)C24Cl (centres unmarked) [Kepone] |  |  | -107±26% | -101±8% | 0.93 ± 0.65 |  |  |  |  |  | 2.82 | 99 | 10.2 ± 9.25
